Where two headings read alike, the source gives them in different places.
Key:
[1] = cited from earlier work; for TEF* (toxic equivalency factor): Table II, congeners of the TEF Mixture native standard
DD-3 antibody = test: Direct competitive EIA with immobilized DD-3 monoclonal antibody and competitor-HRP conjugate; type: binding, mouse; conditions: for Assay sensitivity compared with the Hapten I enzyme conjugate based assay: analyte 2,3,7,8-TCDD; for Assay sensitivity compared with the Hapten I enzyme conjugate based assay / I50 (pg/well) / I85 (mdl, pg/well): DD-3 antibody; for I50 (pg/well) / I85 (mdl, pg/well): analyte 2,3,7,8-tetrachlorodibenzo-p-dioxin, listed competitor as HRP conjugate
Description: Antibodies can be readily prepared by standard methods. […] M. Vanderlaan, et al., U.S. Pat. No. 4,798,807 (1989).
The competitors A-F (FIG. 2) and Hapten I (FIG. 1) were conjugated to the enzyme, amino modified Horseradish Peroxidase (HRP) (horseradish peroxidase commercially available from Sigma Chemical Co. (No. P-6782), St. Louis, Mo.; amino modified per R. Hsiao and H. Royer, Archives Biochem. Biophys., 198, 379-385 (1979) to give 6-24 free amines), using the carbodiimide mediated carboxyl activation procedure described in Example 7. Hapten and competitor load were determined by UV/Vis spectroscopy, also as described in Example 7.
The direct EIA (immobilized antibody and competitor enzyme conjugate) was performed as follows. Monoclonal antibody supernatant stored at -20° C. was diluted 1,000-40,000 fold with PBS which contained 0.1% Tween-20. This solution was dispensed (500 ul) into donkey anti-mouse second antibody coated tubes (DAM Tubes commercially available from Millipore Corp., Bedford, Mass.) and incubated at room temperature overnight. The antisera solution was decanted from the tubes and the tubes washed 3 times with distilled water. Non-specific sites in the tubes were blocked with 600 ul of BSA blocking buffer (EIA Blocking Buffer commercially available from Millipore Corp., Bedford, Mass.) and incubated for 2 hours at room temperature or overnight at 4° C. The blocking buffer was decanted and the tubes allowed to dry under ambient room conditions for at least 2 hours. The assay was performed by adding 500 ul of assay diluent (1% methanol (v/v) and 0.005% Tween-20 (w/v) in distilled water) to the required number of tubes followed by 10 ul of a methanol solution of the analyte (PCDD or PCDF). After a 5 minute incubation at room temperature, the solution was decanted and the tubes rinsed 3-4 times with tap water. The horseradish peroxidase competitor or Hapten I conjugates were diluted 1,000-60,000 fold from 2-5 mg/ml stock solutions in PBS with conjugate diluent (Enzyme Conjugate Diluent commercially available from Millipore Corp., Bedford, Mass.). The enzyme conjugate (200 ul) was added to the tubes followed by a 5 minute incubation at room temperature. The conjugate solution was decanted and the tubes rinsed 3-4 times with tap water. Enzyme substrate solution (500 ul, KPL No. 50-76-04 commercially available from KPL Laboratories, Gaithersburg, Md.) was added and the tubes were incubated at room temperature for 5-15 minutes. The enzyme reaction was stopped with the addition of 500 ul of 1N HCl. The OD of the solution was determined at 450 nm. The data was plotted using Log (Congener Concentration) versus B/Bo (B=Sample Absorbance, Bo=Sample Blank Absorbance).

[2] = most toxic PCDD/PCDF congeners, reference 2,3,7,8-TCDD = 1.0, S. Safe 1990
[3] = analyte 2,3,7,8-tetrachlorodibenzofuran, DD-3 and Competitor F
[4] = toxicity relative to 2,3,7,8-TCDD

Row | Structure (SMILES) | TEF* (toxic equivalency factor) [1] | TEF [1, 2] | other results
1 | Clc1cc(Cl)c2c(c1Cl)Oc1c(Cl)c(Cl)c(Cl)c(Cl)c1O2 [1,2,3,4,6,7,9-HpCDD] | 0.01 | 0.01 | 
2 | Clc1cc2c(oc3c(Cl)c(Cl)c(Cl)c(Cl)c32)c(Cl)c1Cl [1,2,3,4,6,7,8-HpCDF] | 0.01 | 0.01 | 
3 | O=C(O)CCCC(=O)c1ccc(Cl)c(Cl)c1 [Competitor F] |  |  | Assay sensitivity compared with the Hapten I enzyme conjugate based assay (DD-3 antibody): significantly more sensitive; I50 (pg/well) (DD-3 antibody): 230 pg/well; I85 (mdl, pg/well) (DD-3 antibody): 13 pg/well
4 | O=C(O)CCc1ccc(Cl)c(Cl)c1 [Competitor B] |  |  | Assay sensitivity compared with the Hapten I enzyme conjugate based assay (DD-3 antibody): significantly more sensitive; I50 (pg/well) (DD-3 antibody): 350 pg/well; I85 (mdl, pg/well) (DD-3 antibody): 20 pg/well
5 | Clc1cc2oc3c(Cl)c(Cl)c(Cl)c(Cl)c3c2cc1Cl [1,2,3,4,7,8-HxCDF] | 0.1 | 0.1 | 
6 | Clc1cc2c(cc1Cl)Oc1c(cc(Cl)c(Cl)c1Cl)O2 [1,2,3,7,8-PeCDD] | 0.5 | 0.5 | 
7 | Clc1cc2oc3cc(Cl)c(Cl)cc3c2cc1Cl [2,3,7,8-TCDF, 2,3,7,8-tetrachlorodibenzofuran] | 0.1 | 0.1 | Factor more sensitive than DD-3 and Hapten I assay system (DD-3 antibody; analyte 2,3,7,8-tetrachlorodibenzofuran, Competitor F versus literature Hapten I assay (Stanker 1987)): ~10; I50 (DD-3 antibody; [3]): 800 pg/well; I85 (mdl) (DD-3 antibody; [3]): 80 pg/well
8 | Clc1cc2oc3c(Cl)c(Cl)c(Cl)c(Cl)c3c2c(Cl)c1Cl [1,2,3,4,7,8,9-HpCDF] | 0.01 | 0.01 | 
9 | O=C(O)CCCOc1ccc(Cl)c(Cl)c1 [Competitor D] |  |  | Assay sensitivity compared with the Hapten I enzyme conjugate based assay (DD-3 antibody): significantly more sensitive; I50 (pg/well) (DD-3 antibody): 380 pg/well; I85 (mdl, pg/well) (DD-3 antibody): 15 pg/well
10 | O=C(O)CCCSc1cc(Cl)ccc1Cl [Competitor E] |  |  | Assay sensitivity compared with the Hapten I enzyme conjugate based assay (DD-3 antibody): significantly more sensitive; I50 (pg/well) (DD-3 antibody): 380 pg/well; I85 (mdl, pg/well) (DD-3 antibody): 15 pg/well
11 | Clc1cc2c(oc3c(Cl)c(Cl)c(Cl)cc32)c(Cl)c1Cl [2,3,4,6,7,8-HxCDF] | 0.1 | 0.1 | 
12 | Clc1cc2c(c(Cl)c1Cl)Oc1c(Cl)c(Cl)c(Cl)c(Cl)c1O2 [1,2,3,4,6,7,8-heptachlorodibenzo-p-dioxin] |  | 0.01 | TEF [1, 4]: 0.01
13 | Clc1c(Cl)c(Cl)c2c(oc3c(Cl)c(Cl)c(Cl)c(Cl)c32)c1Cl [OCDF] | 0.001 | 0.001 | 
14 | O=C(O)CCCCc1cc(Cl)ccc1Cl [Competitor A, 5-(2,5-dichlorophenyl)pentanoic acid] |  |  | Assay sensitivity compared with the Hapten I enzyme conjugate based assay (DD-3 antibody): significantly more sensitive; I50 (pg/well) (DD-3 antibody): 1,000 pg/well; I85 (mdl, pg/well) (DD-3 antibody): 25 pg/well
15 | Clc1cc2c(cc1Cl)Oc1cc(Cl)c(Cl)cc1O2 [2,3,7,8-TCDD, 2,3,7,8-tetrachlorodibenzo-p-dioxin] | 1 | 1.0 | TEF [1, 4]: 1.0
16 | Clc1cc2c(c(Cl)c1Cl)Oc1c(cc(Cl)c(Cl)c1Cl)O2 [1,2,3,7,8,9-HxCDD] | 0.1 | 0.1 | 
17 | Clc1cc2c(c(Cl)c1Cl)Oc1cc(Cl)c(Cl)c(Cl)c1O2 [1,2,3,6,7,8-HxCDD] | 0.1 | 0.1 | 
18 | Clc1cc2oc3cc(Cl)c(Cl)c(Cl)c3c2c(Cl)c1Cl [1,2,3,7,8,9-HxCDF] | 0.1 | 0.1 | 
19 | Clc1cc2c(cc1Cl)Oc1c(Cl)c(Cl)c(Cl)c(Cl)c1O2 [1,2,3,4,7,8-HxCDD] | 0.1 | 0.1 | 
20 | Clc1cc2oc3cc(Cl)c(Cl)c(Cl)c3c2cc1Cl [1,2,3,7,8-PeCDF] | 0.05 | 0.05 | 
21 | Clc1cc2c(oc3cc(Cl)c(Cl)c(Cl)c32)c(Cl)c1Cl [1,2,3,6,7,8-HxCDF] | 0.1 | 0.1 | 
22 | O=C(O)CCCOc1ccc(Cl)cc1Cl [Competitor C] |  |  | Assay sensitivity compared with the Hapten I enzyme conjugate based assay (DD-3 antibody): significantly more sensitive; I50 (pg/well) (DD-3 antibody): 230 pg/well; I85 (mdl, pg/well) (DD-3 antibody): 13 pg/well
23 | Clc1c(Cl)c(Cl)c2c(c1Cl)Oc1c(Cl)c(Cl)c(Cl)c(Cl)c1O2 [OCDD] | 0.001 | 0.001 | 
